Values of other authors as cited in patent US20140256765A1, “TRANSMUCOSAL DRUG DELIVERY SYSTEM” (priority 2013, published 2014).

Experiments:
[1] = at a pH of 6.8
[2] = in vivo

CN1CCCC1c1cccnc1 (centres unmarked) [nicotine]
nicotine in the free base form [1]: about 10% | time to peak of plasma nicotine levels [2]: about 10 minutes
